Test results as given in patent US9687479B2, “Multisubstituted aromatic compounds as serine protease inhibitors” (VERSEON CORPORATION, priority 2013, dated 2017).
pIC50: −log10 of the molar value. Like-named read-outs stand apart in the source and are kept apart here.

Molecular target: Human thrombin (Homo sapiens (Human), UniProt P00734)
Experiment: Thrombin protease activity inhibition assay (chromogenic substrate S-2238)
Assay type: biochemical
Experimental: The thrombin activity reported herein (e.g., Table A) was obtained as follows. […] Thrombin was assayed in buffer containing 0.05 M Tris (pH 7.4), 0.015 M NaCl and 0.01% PEG-8000. The final concentration of enzyme used was 3 nM thrombin. […] All assays were performed in 96-well microtiter plates at room temperature (RT). […] Inhibitor IC50 values were determined by adding test compound as ten point, three-fold serial dilutions in buffer solution, as known in the art. The plate was read at 10 minutes after substrate addition. The IC50 was calculated by plotting the percent (%) inhibition against compound concentration and fitting the data to a constrained four parameter sigmoidal curve, as known in the art.

[1] = 3 nM thrombin, 125 μM S-2238, 10 min pre-incubation, RT

Compound	pIC50 [1]	pIC50
O=C(c1ccc(N2CCOCC2)cc1)n1nc(-c2cccn(Cc3ccsc3)c2=O)cc1NCc1ccc(Cl)s1 [Cmpd 217, 3-(5-[(5-chlorothiophen-2-yl)methyl]amino-1-[4-(morpholin-4-yl)phenyl]carbonyl-1H-pyrazol-3-yl)-1-(thiophen-3-ylmethyl)-1,2-dihydropyridin-2-one]	> 7.00	–
O=C(c1ccccc1N1CCOCC1)n1nc(-c2ccc[nH]c2=O)cc1NCc1ccc(Cl)s1 [Cmpd 205, 3-(5-[(5-chlorothiophen-2-yl)methyl]amino-1-[2-(morpholin-4-yl)phenyl]carbonyl-1H-pyrazol-3-yl)-1,2-dihydropyridin-2-one]	5.00 to 6.00	–
Cn1cccc(-c2cc(NCc3ccc(Cl)s3)n(C(=O)c3ccc(C(C)(C)C)cc3)n2)c1=O [Cmpd 254, 3-1-[(4-tert-butylphenyl)carbonyl]-5-[(5-chlorothiophen-2-yl)methyl]amino-1H-pyrazol-3-yl-1-methyl-1,2-dihydropyridin-2-one]	> 7.00	–
COc1ccc(C(=O)n2nc(-c3cccn(Cc4ccncc4)c3=O)cc2NCc2ccc(Cl)s2)c(OC)c1 [Cmpd 127, 3-(5-[(5-chlorothiophen-2-yl)methyl]amino-1-[(2,4-dimethoxyphenyl)carbonyl]-1H-pyrazol-3-yl)-1-(pyridin-4-ylmethyl)-1,2-dihydropyridin-2-one]	> 7.00	–
Nc1cc(-c2ccc[nH]c2=O)n[nH]1 [Cmpd 1, 3-(5-amino-1H-pyrazol-3-yl)-1,2-dihydropyridin-2-one]	–	< 4.00
O=c1c(-c2cc(NCc3ccc(Cl)s3)[nH]n2)cccn1Cc1ccsc1 [Cmpd 232, 3-(5-[(5-chlorothiophen-2-yl)methyl]amino-1H-pyrazol-3-yl)-1-(thiophen-3-ylmethyl)-1,2-dihydropyridin-2-one]	5.00 to 6.00	–
O=C(c1ccccc1)n1nc(-c2ccc[nH]c2=O)cc1NCc1ccc(Cl)s1 [Cmpd 61, 3-(1-benzoyl-5-[(5-chlorothiophen-2-yl)methyl]amino-1H-pyrazol-3-yl)-1,2-dihydropyridin-2-one]	> 7.00	–
CC(C)(C)OC(=O)Cn1cccc(-c2cc(NCc3ccc(Cl)s3)[nH]n2)c1=O [Cmpd 264, tert-butyl 2-[3-(5-[(5-chlorothiophen-2-yl)methyl]amino-1H-pyrazol-3-yl)-2-oxo-1,2-dihydropyridin-1-yl]acetate]	< 4.00	–
COc1ccccc1C(=O)n1nc(-c2cccn(Cc3ccccc3)c2=O)cc1NCc1ccc(Cl)s1 [Cmpd 47, 1-benzyl-3-(5-[(5-chlorothiophen-2-yl)methyl]amino-1-[(2-methoxyphenyl)carbonyl]-1H-pyrazol-3-yl)-1,2-dihydropyridin-2-one]	> 7.00	–
COc1ccccc1C(=O)n1nc(-c2cccn(Cc3ccccc3Cl)c2=O)cc1NCc1ccc(Cl)s1 [Cmpd 28, 1-[(2-chlorophenyl)methyl]-3-(5-[(5-chlorothiophen-2-yl)methyl]amino-1-[(2-methoxyphenyl)carbonyl]-1H-pyrazol-3-yl)-1,2-dihydropyridin-2-one]	> 7.00	–
CCOC(=O)Cn1cccc(-c2cc(NCc3ccc(Cl)s3)n[nH]2)c1=O [Cmpd 260, ethyl 2-[3-(5-[(5-chlorothiophen-2-yl)methyl]amino-1H-pyrazol-3-yl)-2-oxo-1,2-dihydropyridin-1-yl]acetate]	4.00 to 5.00	–
CC1(C(=O)n2nc(-c3cccn(Cc4cccnc4)c3=O)cc2NCc2ccc(Cl)s2)CCOCC1 [Cmpd 154, 3-(5-[(5-chlorothiophen-2-yl)methyl]amino-1-[(4-methyloxan-4-yl)carbonyl]-1H-pyrazol-3-yl)-1-(pyridin-3-ylmethyl)-1,2-dihydropyridin-2-one]	> 7.00	–
CN(C)c1cc(-c2ccc[nH]c2=O)nn1C(=O)c1ccco1 [Cmpd 239, 3-[5-(dimethylamino)-1-[(furan-2-yl)carbonyl]-1H-pyrazol-3-yl]-1,2-dihydropyridin-2-one]	< 4.00	–

Continued, in another order:

pIC50 [1]	Compound	pIC50
> 7.00	O=C(c1cccs1)n1nc(-c2cccn(Cc3cccs3)c2=O)cc1NCc1ccc(Cl)s1 [Cmpd 190, 3-(5-[(5-chlorothiophen-2-yl)methyl]amino-1-[(thiophen-2-yl)carbonyl]-1H-pyrazol-3-yl)-1-(thiophen-2-ylmethyl)-1,2-dihydropyridin-2-one]	–
> 7.00	O=C(c1cccs1)n1nc(-c2cccn(Cc3ccccn3)c2=O)cc1NCc1ccc(Cl)s1 [Cmpd 186, 3-(5-[(5-chlorothiophen-2-yl)methyl]amino-1-[(thiophen-2-yl)carbonyl]-1H-pyrazol-3-yl)-1-(pyridin-2-ylmethyl)-1,2-dihydropyridin-2-one]	–
> 7.00	O=C(c1cccc2c1OCCO2)n1nc(-c2cccn(Cc3ccoc3)c2=O)cc1NCc1ccc(Cl)s1 [Cmpd 111, 3-(5-[(5-chlorothiophen-2-yl)methyl]amino-1-[(2,3-dihydro-1,4-benzodioxin-5-yl)carbonyl]-1H-pyrazol-3-yl)-1-(furan-3-ylmethyl)-1,2-dihydropyridin-2-one]	–
> 7.00	O=C(c1ccoc1)n1nc(-c2cccn(Cc3cccnn3)c2=O)cc1NCc1ccc(Cl)s1 [Cmpd 176, 3-(5-[(5-chlorothiophen-2-yl)methyl]amino-1-[(furan-3-yl)carbonyl]-1H-pyrazol-3-yl)-1-(pyridazin-3-ylmethyl)-1,2-dihydropyridin-2-one]	–
> 7.00	O=C(c1cccs1)n1nc(-c2cccn(Cc3ccncc3)c2=O)cc1NCc1ccc(Cl)s1 [Cmpd 188, 3-(5-[(5-chlorothiophen-2-yl)methyl]amino-1-[(thiophen-2-yl)carbonyl]-1H-pyrazol-3-yl)-1-(pyridin-4-ylmethyl)-1,2-dihydropyridin-2-one]	–
> 7.00	O=C(c1ccccc1Cl)n1nc(-c2cccn(Cc3ccccc3)c2=O)cc1NCc1ccc(Cl)s1 [Cmpd 55, 1-benzyl-3-1-[(2-chlorophenyl)carbonyl]-5-[(5-chlorothiophen-2-yl)methyl]amino-1H-pyrazol-3-yl-1,2-dihydropyridin-2-one]	–
> 7.00	O=C(c1ccco1)n1nc(-c2cccn(Cc3ccccn3)c2=O)cc1NCc1ccc(Cl)s1 [Cmpd 164, 3-(5-[(5-chlorothiophen-2-yl)methyl]amino-1-[(furan-2-yl)carbonyl]-1H-pyrazol-3-yl)-1-(pyridin-2-ylmethyl)-1,2-dihydropyridin-2-one]	–
> 7.00	O=C(c1ccco1)n1nc(-c2cccn(Cc3cccs3)c2=O)cc1NCc1ccc(Cl)s1 [Cmpd 168, 3-(5-[(5-chlorothiophen-2-yl)methyl]amino-1-[(furan-2-yl)carbonyl]-1H-pyrazol-3-yl)-1-(thiophen-2-ylmethyl)-1,2-dihydropyridin-2-one]	–
> 7.00	O=C(c1ccoc1)n1nc(-c2cccn(Cc3ccc(Cl)s3)c2=O)cc1NCc1ccc(Cl)s1 [Cmpd 41, 1-[(5-chlorothiophen-2-yl)methyl]-3-(5-[(5-chlorothiophen-2-yl)methyl]amino-1-[(furan-3-yl)carbonyl]-1H-pyrazol-3-yl)-1,2-dihydropyridin-2-one]	–
> 7.00	COc1ccccc1C(=O)n1nc(-c2cccn(Cc3ccc(Cl)s3)c2=O)cc1NCc1ccc(Cl)s1 [Cmpd 40, 1-[(5-chlorothiophen-2-yl)methyl]-3-(5-[(5-chlorothiophen-2-yl)methyl]amino-1-[(2-methoxyphenyl)carbonyl]-1H-pyrazol-3-yl)-1,2-dihydropyridin-2-one]	–
> 7.00	CC1(C(=O)n2nc(-c3cccn(Cc4ccoc4)c3=O)cc2NCc2ccc(Cl)s2)CCOCC1 [Cmpd 151, 3-(5-[(5-chlorothiophen-2-yl)methyl]amino-1-[(4-methyloxan-4-yl)carbonyl]-1H-pyrazol-3-yl)-1-(furan-3-ylmethyl)-1,2-dihydropyridin-2-one]	–
> 7.00	O=C(c1ccco1)n1nc(-c2cccn(Cc3ccoc3)c2=O)cc1NCc1ccc(Cl)s1 [Cmpd 162, 3-(5-[(5-chlorothiophen-2-yl)methyl]amino-1-[(furan-2-yl)carbonyl]-1H-pyrazol-3-yl)-1-(furan-3-ylmethyl)-1,2-dihydropyridin-2-one]	–
> 7.00	O=C(c1cccs1)n1nc(-c2cccn(Cc3ccco3)c2=O)cc1NCc1ccc(Cl)s1 [Cmpd 183, 3-(5-[(5-chlorothiophen-2-yl)methyl]amino-1-[(thiophen-2-yl)carbonyl]-1H-pyrazol-3-yl)-1-(furan-2-ylmethyl)-1,2-dihydropyridin-2-one]	–
> 7.00	O=C(c1ccoc1)n1nc(-c2cccn(Cc3ccncc3)c2=O)cc1NCc1ccc(Cl)s1 [Cmpd 6, 3-(5-[(5-chlorothiophen-2-yl)methyl]amino-1-[(furan-3-yl)carbonyl]-1H-pyrazol-3-yl)-1-(pyridin-4-ylmethyl)-1,2-dihydropyridin-2-one]	–
> 7.00	O=C(c1ccccc1Cl)n1nc(-c2cccn(Cc3ccccn3)c2=O)cc1NCc1ccc(Cl)s1 [Cmpd 246, 3-1-[(2-chlorophenyl)carbonyl]-5-[(5-chlorothiophen-2-yl)methyl]amino-1H-pyrazol-3-yl-1-(pyridin-2-ylmethyl)-1,2-dihydropyridin-2-one]	–
> 7.00	COc1ccccc1C(=O)n1nc(-c2cccn(Cc3ccoc3)c2=O)cc1NCc1ccc(Cl)s1 [Cmpd 136, 3-(5-[(5-chlorothiophen-2-yl)methyl]amino-1-[(2-methoxyphenyl)carbonyl]-1H-pyrazol-3-yl)-1-(furan-3-ylmethyl)-1,2-dihydropyridin-2-one]	–
> 7.00	O=C(c1ccccc1Cl)n1nc(-c2cccn(Cc3ncccn3)c2=O)cc1NCc1ccc(Cl)s1 [Cmpd 249, 3-1-[(2-chlorophenyl)carbonyl]-5-[(5-chlorothiophen-2-yl)methyl]amino-1H-pyrazol-3-yl-1-(pyrimidin-2-ylmethyl)-1,2-dihydropyridin-2-one]	–
